Measured values published in patent US20260250318A1, “COMPOSITIONS AND METHODS FOR CROSSING THE BLOOD BRAIN BARRIER” (VOYAGER THERAPEUTICS, INC., priority 2022, published 2026).

Tests used:
brain = experiment: Matured TTM-001 and TTM-002 variants, NGS enrichment in mouse brain; assay type: in vivo, mice; settings: relative to AAV9 control
[1] = system: brains, heart, liver, muscle, and DRG of the NHPs; experiment: Maturation of TTM-001 and TTM-002 capsids, NGS enrichment in NHP tissues; assay type: in vivo; settings: relative to AAV9 control
In short: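 Variants carry mutations within and flanking the loop IV peptide insert: positions 450–466 were triplet-randomized, while positions 449–466 received low-frequency point mutations. The combined pool went into two NHPs, and each peptide was scored by NGS enrichment ratio against AAV9.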

[2] = NGS fold-enrichment of matured AAV capsid variants, NHP brain, RNA
[3] = NGS fold-enrichment, mouse brain
[4] = NGS fold-enrichment of RNA, NHP brain
[5] = NGS fold-enrichment, NHP liver DNA
[6] = NGS fold-enrichment, NHP liver RNA
[7] = NGS fold-enrichment, NHP muscle
[8] = NGS fold-enrichment, brain of mice
[9] = NGS fold-enrichment, DRG of NHPs
[10] = NGS fold-enrichment, RNA, brain of NHPs
[11] = NGS fold-enrichment, heart of NHPs
[12] = NGS fold-enrichment, liver DNA of NHPs
[13] = NGS fold-enrichment, liver RNA of NHPs
[14] = NGS fold-enrichment, muscle of NHPs

| Sequence | Fold Enrichment relative to AAV9, Brain (Mouse) (brain; mouse brain) | Fold Enrichment relative to AAV9, Brain (NHP) [1, 2] | Fold Enrichment relative to AAV9, DRG (NHP) ([1]; NHP DRG) | Fold Enrichment relative to AAV9, Heart (NHP) ([1]; NHP heart) | Fold Enrichment relative to AAV9, Liver DNA (NHP) ([1]; NHP liver, DNA) | Fold Enrichment relative to AAV9, Liver RNA (NHP) ([1]; NHP liver, RNA) | Fold Enrichment relative to AAV9, Muscle (NHP) ([1]; NHP muscle) | Fold Enrichment relative to AAV9, Brain (Mouse) (brain; [3]) | Fold Enrichment relative to AAV9, Brain (NHP) [1, 4] | Fold Enrichment relative to AAV9, DRG (NHP) ([1]; NGS fold-enrichment, NHP DRG) | Fold Enrichment relative to AAV9, Heart (NHP) ([1]; NGS fold-enrichment, NHP heart) | Fold Enrichment relative to AAV9, Liver DNA (NHP) [1, 5] | Fold Enrichment relative to AAV9, Liver RNA (NHP) [1, 6] | Fold Enrichment relative to AAV9, Muscle (NHP) [1, 7] | further results |
| --- | --- | --- | --- | --- | --- | --- | --- | --- | --- | --- | --- | --- | --- | --- | --- |
| KNVNGSGSPHSKAQNQQT | 53.379 fold | 58.481 fold | 0.000 fold | 0.000 fold | 0.166 fold | 0.917 fold | 0.000 fold |  |  |  |  |  |  |  |  |
| KNVVGHDSPHKSGQNQQT |  |  |  |  |  |  |  | 8.077 fold | 75.330 fold | 0.000 fold | 0.024 fold | 0.049 fold | 0.063 fold | 0.000 fold |  |
| KQGEGSGSPHSKAQNQQT | 135.300 fold | 58.752 fold | 0.000 fold | 0.000 fold | 0.151 fold | 0.000 fold | 0.000 fold |  |  |  |  |  |  |  |  |
| KSDIGSGSPHSKAQNQQT | 107.342 fold | 57.592 fold | 0.000 fold | 0.000 fold | 0.128 fold | 0.844 fold | 0.000 fold |  |  |  |  |  |  |  |  |
| KSDKGSGSPHSKAQNQQT | 146.566 fold | 58.248 fold | 0.000 fold | 0.000 fold | 0.166 fold | 0.076 fold | 0.000 fold |  |  |  |  |  |  |  |  |
| KSDQGSGSPHSKAQNQQT |  |  |  |  |  |  |  | 151.911 fold | 80.076 fold | 0.000 fold | 0.000 fold | 0.124 fold | 0.993 fold | 0.000 fold | Fold Enrichment relative to AAV9, Brain (Mouse) (brain; [8]): 151.911 fold; Fold Enrichment relative to AAV9, DRG (NHP) [1, 9]: 0.000 fold; Fold Enrichment relative to AAV9, Brain (NHP) [1, 10]: 80.076 fold; Fold Enrichment relative to AAV9, Heart (NHP) [1, 11]: 0.000 fold; Fold Enrichment relative to AAV9, Liver DNA (NHP) [1, 12]: 0.124 fold; Fold Enrichment relative to AAV9, Liver RNA (NHP) [1, 13]: 0.993 fold; Fold Enrichment relative to AAV9, Muscle (NHP) [1, 14]: 0.000 fold |
| KSEKGSGSPHSKAQNQQT | 158.931 fold | 58.566 fold | 0.000 fold | 0.010 fold | 0.059 fold | 1.601 fold | 0.011 fold |  |  |  |  |  |  |  |  |
| KSELGHDSPHKSGQNQQT |  |  |  |  |  |  |  | 13.285 fold | 107.059 fold | 0.000 fold | 0.005 fold | 0.055 fold | 0.000 fold | 0.000 fold |  |
| KSELGSGSPHSKAQNQQT | 120.521 fold | 55.997 fold | 0.000 fold | 0.005 fold | 0.239 fold | 0.881 fold | 0.000 fold |  |  |  |  |  |  |  |  |
| KSIKGNGSPHSKAQNQQT |  |  |  |  |  |  |  | 90.251 fold | 75.196 fold | 0.000 fold | 0.000 fold | 0.000 fold | 0.000 fold | 0.000 fold | Fold Enrichment relative to AAV9, Brain (Mouse) (brain; [8]): 90.251 fold; Fold Enrichment relative to AAV9, DRG (NHP) [1, 9]: 0.000 fold; Fold Enrichment relative to AAV9, Brain (NHP) [1, 10]: 75.196 fold; Fold Enrichment relative to AAV9, Heart (NHP) [1, 11]: 0.000 fold; Fold Enrichment relative to AAV9, Liver DNA (NHP) [1, 12]: 0.000 fold; Fold Enrichment relative to AAV9, Liver RNA (NHP) [1, 13]: 0.000 fold; Fold Enrichment relative to AAV9, Muscle (NHP) [1, 14]: 0.000 fold |
| KSINESGSPHSKAQNQQI |  |  |  |  |  |  |  | 67.649 fold | 113.833 fold | 0.000 fold | 0.000 fold | 0.000 fold | 0.000 fold | 0.000 fold | Fold Enrichment relative to AAV9, Brain (Mouse) (brain; [8]): 67.649 fold; Fold Enrichment relative to AAV9, DRG (NHP) [1, 9]: 0.000 fold; Fold Enrichment relative to AAV9, Brain (NHP) [1, 10]: 113.833 fold; Fold Enrichment relative to AAV9, Heart (NHP) [1, 11]: 0.000 fold; Fold Enrichment relative to AAV9, Liver DNA (NHP) [1, 12]: 0.000 fold; Fold Enrichment relative to AAV9, Liver RNA (NHP) [1, 13]: 0.000 fold; Fold Enrichment relative to AAV9, Muscle (NHP) [1, 14]: 0.000 fold |
| KSINGGGSPHSKAQYQQT | 65.952 fold | 54.612 fold | 0.000 fold | 0.000 fold | 0.010 fold | 0.105 fold | 0.000 fold |  |  |  |  |  |  |  |  |
| KSINGHDSPHKSGQIQHT |  |  |  |  |  |  |  | 13.872 fold | 87.598 fold | 0.000 fold | 0.480 fold | 0.347 fold | 0.714 fold | 0.000 fold |  |
| KSINGHDSPHKSGQRQHT |  |  |  |  |  |  |  | 9.851 fold | 80.132 fold | 0.000 fold | 0.357 fold | 0.000 fold | 0.000 fold | 0.000 fold |  |
| KSINGHDSPHKSGQYQHT |  |  |  |  |  |  |  | 14.485 fold | 88.195 fold | 0.000 fold | 0.099 fold | 0.149 fold | 0.000 fold | 0.000 fold |  |
| KSINGSGSPHSKAPNLQT | 59.270 fold | 51.812 fold | 0.000 fold | 0.256 fold | 0.139 fold | 0.085 fold | 0.000 fold |  |  |  |  |  |  |  |  |
| KSINGSGSPHSKAQAQQT |  |  |  |  |  |  |  |  |  |  |  |  |  |  | Fold Enrichment relative to AAV9, Brain (Mouse) (brain; [8]): 78.451 fold; Fold Enrichment relative to AAV9, DRG (NHP) [1, 9]: 0.000 fold; Fold Enrichment relative to AAV9, Brain (NHP) [1, 10]: 66.464 fold; Fold Enrichment relative to AAV9, Heart (NHP) [1, 11]: 0.711 fold; Fold Enrichment relative to AAV9, Liver DNA (NHP) [1, 12]: 0.111 fold; Fold Enrichment relative to AAV9, Liver RNA (NHP) [1, 13]: 0.148 fold; Fold Enrichment relative to AAV9, Muscle (NHP) [1, 14]: 0.000 fold |
| KSINGSGSPHSKTQSQQT | 71.397 fold | 58.608 fold | 0.000 fold | 3.017 fold | 0.017 fold | 0.155 fold | 0.000 fold |  |  |  |  |  |  |  |  |
| KSINGYDSPHKSGQTQQT |  |  |  |  |  |  |  | 4.497 fold | 79.227 fold | 1.817 fold | 0.226 fold | 1.148 fold | 0.000 fold | 0.000 fold |  |
| KSIYGHESPHKSGQNQQS |  |  |  |  |  |  |  | 8.064 fold | 90.947 fold | 0.817 fold | 0.310 fold | 0.243 fold | 0.000 fold | 0.000 fold |  |
| KSLNGSGSPHTKAQNQQT |  |  |  |  |  |  |  | 45.140 fold | 81.515 fold | 0.197 fold | 0.333 fold | 0.085 fold | 0.000 fold | 0.000 fold |  |
